{"source": "patent EP0100673A2", "about": "“A method of enhancing neurofiber regrowth” (THE RESEARCH FOUNDATION OF STATE UNIVERSITY OF NEW YORK, priority 1982, dated 1984)", "key": {"[1]": {"test_system": "sciatic nerve", "assay": "Counts of myelinated and unmyelinated axons 5.0 mm distal to repair by electron microscopy", "assay_type": "in vivo, rat", "settings": "Electron Microscopy; for #Myelinated Axons / #Unmyelinated Axons: 5.0mm. Distal to Repair, 12 mg/kg in 5% DMSO, bath + i.m. twice weekly", "experimental": "(§1) lwenty raty art anenthetizve with sel rompun (0.5 cc total volume). The right sciatic nerve is exposed and severed with microneuroscissors, and subsequently repaired microsurgically with 6-8 circumferential microsutures using 10-0 nylon. Immediately following surgery the treated animals receive 12 mg/kg Ac leupeptin in 5% DMSO (dimethylsulphoxide) as a bath on their sciatic nerve, 0.25 cc. total volume. Then the treated animals are injected intramuscularly in right hindlimb with 0.25 cc of a solution containing 12 mg/kg Ac leupeptin in 5% DMSO. Control animals receive the same surgical treatment, but the bath and intramuscular injection consist only of the solvent and 5% DMSO.\n(§2) Thereafter, treated animals are injected twice weekly in the operated hindlimb with 12 mg/kg Ac leupeptin in 5% DMSO (0.25 cc total volume) for periods of 1 week, 1 month, two months, three months - and six months. Control animals are injected with 0.25 cc of 5% DMSO twice weekly in the operated hindlimb for the same time period.\n(§3) Two treated and two control animals are assigned to each of the stated time periods.\nA ten mm. portion of the repaired sciatic nerve is excised from each animal. This is fixed in 3.0% glutaraldehyde in 0.1 M sodium cacodylate, pH 7.3, overnight for electron microscopy. After post-fixation in 1.0% osmium tetroxide, ethanol dehydration and embedding in Polybed 812, both thick (1 micron) and thin (500 A°) transverse sections are cut on a ultramicrotome. Portions of the excised muscles receive similar preparation for electron microscopy.\nThick sections of the sciatic nerve are placed on microscope slots stained with toluidine blue and photographed at a constant magnification in the light microscope. Thin sections of both nerve and muscles are placed on 300 mesh copper grid calm, stained with uranyl acetate and lead citrate and photographed using a Hitachi HU-12 electron microscope."}, "[2]": {"test_system": "muscles of the operated hindlimb", "assay": "Wet weight of hindlimb muscles after sciatic nerve severing and microsurgical repair", "assay_type": "in vivo, rat", "settings": "for Average Wet Weight (g) of Muscles: 12 mg/kg in 5% DMSO, bath + i.m. twice weekly; for % Weight (+)gain or (-)loss Treated vs. Control / % Weight (+) gain (-) loss Treated vs. control / % Weight (+)gain or (-)loss: muscle wet weight; for % Weight (+) gain (-) loss Treated vs. control: One Week; for % Weight (+)gain or (-)loss: Three Month, treated vs. control", "experimental": "as §1, §2, §3\nAll animals are sacrified by an overdose of pentobarbital, 1.0 cc total volume. The gastro- cnemius, soleus and extensor digitorum longus muscles of the operated hindlimb are execised from origin to insertion, weighed and then frozen in isopentane in liquid nitrogen […]. For light microscopy, cryostat sections are cut, placed on slides and stained with hematoxylin and eosin and/or ATPase histochemistry at pH's of 4.3 and 10.4. Myofiber diameters are determined by photographing hematoxylin and eosin sections at a constant magnification in the light microscope."}}, "data": [{"molecule": "CC(=O)N[C@@H](CC(C)C)C(=O)N[C@@H](CC(C)C)C(=O)N[C@H](C=O)CCCNC(=N)N", "note": "[Ac leupeptin, acetyl-L-leu-L-leu-L-argininal]", "values": [{"measurement": "#Myelinated Axons", "setting": "[1]; One month treated", "result": "1.2 Per 200 μm^2 of Area"}, {"measurement": "#Unmyelinated Axons", "setting": "[1]; One month treated", "result": "8 Per 200 μm^2 of Area"}, {"measurement": "#Myelinated Axons", "setting": "[1]; One week treated", "result": "4.25 Per 200 μm^2 of Area"}, {"measurement": "#Unmyelinated Axons", "setting": "[1]; One week treated", "result": "11.0 Per 200 μm^2 of Area"}, {"measurement": "#Myelinated Axons", "setting": "[1]; Six Month Treated", "result": "5 Per 200 μm^2 of Area"}, {"measurement": "#Unmyelinated Axons", "setting": "[1]; Six Month Treated", "result": "8.7 Per 200 μm^2 of Area"}, {"measurement": "#Myelinated Axons", "setting": "[1]; Three month treated", "result": "9.0 Per 200 μm^2 of Area"}, {"measurement": "#Unmyelinated Axons", "setting": "[1]; Three month treated", "result": "12.9 Per 200 μm^2 of Area"}, {"measurement": "#Myelinated Axons", "setting": "[1]; Two Month Treated", "result": "6 Per 200 μm^2 of Area"}, {"measurement": "#Unmyelinated Axons", "setting": "[1]; Two Month Treated", "result": "18 Per 200 μm^2 of Area"}, {"measurement": "% Difference Treated vs. Control", "setting": "[1]; #Myelinated Axons distal, One month", "result": 25, "unit": "%"}, {"measurement": "% Difference Treated vs. Control", "setting": "[1]; #Myelinated Axons distal, One week", "result": 53, "unit": "%"}, {"measurement": "% Difference Treated vs. Control", "setting": "[1]; #Myelinated Axons distal, Six Month", "result": 1, "unit": "%"}, {"measurement": "% Difference Treated vs. Control", "setting": "[1]; #Myelinated Axons distal, Three month", "result": 58, "unit": "%"}, {"measurement": "% Difference Treated vs. Control", "setting": "[1]; #Myelinated Axons distal, Two Month", "result": 0, "unit": "%"}, {"measurement": "% Difference Treated vs. Control", "setting": "[1]; #Unmyelinated Axons distal, One month", "result": 70, "unit": "%"}, {"measurement": "% Difference Treated vs. Control", "setting": "[1]; #Unmyelinated Axons distal, One week", "result": ">100", "unit": "%"}, {"measurement": "% Difference Treated vs. Control", "setting": "[1]; #Unmyelinated Axons distal, Six Month", "result": "+30%"}, {"measurement": "% Difference Treated vs. Control", "setting": "[1]; #Unmyelinated Axons distal, Three month", "result": 61, "unit": "%"}, {"measurement": "% Difference Treated vs. Control", "setting": "[1]; #Unmyelinated Axons distal, Two Month", "result": 50, "unit": "%"}, {"measurement": "Average Wet Weight (g) of Muscles", "setting": "[2]; One Month Treated, E.D.L.", "result": 0.198, "unit": "g"}, {"measurement": "Average Wet Weight (g) of Muscles", "setting": "[2]; One Month Treated, GASTROCNEMIUS", "result": ".954 g"}, {"measurement": "Average Wet Weight (g) of Muscles", "setting": "[2]; One Month Treated, SOLEUS", "result": ".379 g"}, {"measurement": "Average Wet Weight (g) of Muscles", "setting": "[2]; One Week Treated, E.D.L.", "result": 0.116, "unit": "g"}, {"measurement": "Average Wet Weight (g) of Muscles", "setting": "[2]; One Week Treated, GASTROCNEMIUS", "result": 2.379, "unit": "g"}, {"measurement": "Average Wet Weight (g) of Muscles", "setting": "[2]; One Week Treated, SOLEUS", "result": 0.335, "unit": "g"}, {"measurement": "Average Wet Weight (g) of Muscles", "setting": "[2]; Six Month Treated, E.D.L.", "result": 0.163, "unit": "g"}, {"measurement": "Average Wet Weight (g) of Muscles", "setting": "[2]; Six Month Treated, GASTROCNEMIUS", "result": 1.577, "unit": "g"}, {"measurement": "Average Wet Weight (g) of Muscles", "setting": "[2]; Six Month Treated, SOLEUS", "result": 0.306, "unit": "g"}, {"measurement": "Average Wet Weight (g) of Muscles", "setting": "[2]; Three Month Treated, E.D.L.", "result": 0.178, "unit": "g"}, {"measurement": "Average Wet Weight (g) of Muscles", "setting": "[2]; Three Month Treated, GASTROCNEMIUS", "result": 1.563, "unit": "g"}, {"measurement": "Average Wet Weight (g) of Muscles", "setting": "[2]; Three Month Treated, SOLEUS", "result": 0.248, "unit": "g"}, {"measurement": "Average Wet Weight (g) of Muscles", "setting": "[2]; Two Months Treated, E.D.L.", "result": 0.202, "unit": "g"}, {"measurement": "Average Wet Weight (g) of Muscles", "setting": "[2]; Two Months Treated, GASTROCNEMIUS", "result": 1.371, "unit": "g"}, {"measurement": "Average Wet Weight (g) of Muscles", "setting": "[2]; Two Months Treated, SOLEUS", "result": 0.425, "unit": "g"}, {"measurement": "average wet weight in grams in treated muscles", "setting": "[2]; all time periods and muscles, vs. control", "result": "significantly greater than control"}, {"measurement": "% Weight (+)gain or (-)loss Treated vs. Control", "setting": "[2]; One Month, E.D.L.", "result": "+62%"}, {"measurement": "% Weight (+)gain or (-)loss Treated vs. Control", "setting": "[2]; One Month, GASTROCNEMIUS", "result": "+30%"}, {"measurement": "% Weight (+)gain or (-)loss Treated vs. Control", "setting": "[2]; One Month, SOLEUS", "result": "+19%"}, {"measurement": "% Weight (+) gain (-) loss Treated vs. control", "setting": "[2]; E.D.L.", "result": "+18%"}, {"measurement": "% Weight (+) gain (-) loss Treated vs. control", "setting": "[2]; GASTROCNEMIUS", "result": "+37%"}, {"measurement": "% Weight (+) gain (-) loss Treated vs. control", "setting": "[2]; SOLEUS", "result": "+13%"}, {"measurement": "% Weight (+)gain or (-)loss Treated vs. Control", "setting": "[2]; Six Month, E.D.L.", "result": "+18%"}, {"measurement": "% Weight (+)gain or (-)loss Treated vs. Control", "setting": "[2]; Six Month, GASTROCNEMIUS", "result": "+15%"}, {"measurement": "% Weight (+)gain or (-)loss Treated vs. Control", "setting": "[2]; Six Month, SOLEUS", "result": "+23%"}, {"measurement": "% Weight (+)gain or (-)loss", "setting": "[2]; E.D.L.", "result": "+13%"}, {"measurement": "% Weight (+)gain or (-)loss", "setting": "[2]; GASTROCNEMIUS", "result": "+18%"}, {"measurement": "% Weight (+)gain or (-)loss", "setting": "[2]; SOLEUS", "result": "+9%"}, {"measurement": "% Weight (+)gain or (-)loss Treated vs. Control", "setting": "[2]; Two Months, E.D.L.", "result": "+43%"}, {"measurement": "% Weight (+)gain or (-)loss Treated vs. Control", "setting": "[2]; Two Months, GASTROCNEMIUS", "result": "+14%"}, {"measurement": "% Weight (+)gain or (-)loss Treated vs. Control", "setting": "[2]; Two Months, SOLEUS", "result": "+9%"}]}]}
